Laboratory results taken from patent US6720346B2, “Thiazole benzamide derivatives and pharmaceutical compositions for inhibiting cell proliferation” (Agouron Pharmaceuticals, Inc., priority 2001, dated 2004).

Experiments:
CDK2/cyclin A = target: T1, CDK2/cyclin A (Homo sapiens, UniProt P24941); assay: Inhibition of CDK2/cyclin A retinoblastoma kinase activity (Ki; % inhibition); assay type: biochemical; conditions: for Ki: apparent Ki, CDK2/cyclin A, Rb substrate
T1 construct: made in house; host or cells: CDK2: insect cells (baculovirus); cyclin A: E. coli
Procedure, shortened: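 Radiometric filter assay of CDK2/proteolyzed cyclin A (baculovirus-expressed human CDK2, 10 or 19 nM) phosphorylating an Rb fragment with 25 μM [³²P/³³P]ATP in pH 7.4 HEPES, 2% DMSO, at 30 °C for 60 or 75 min under initial-rate conditions. Library compounds screened at 30 nM for % inhibition; apparent Ki from concentration series fit to competitive or tight-binding inhibition equations.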

HCT-116 cell line = assay: Inhibition of cell growth, MTT tetrazolium salt assay; assay type: cell-based; conditions: for IC50: Homo sapiens, HCT-116, 120 h, MTT, three to five days
Procedure, shortened: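 Growth inhibition was read as MTT-formazan absorbance at 540 nm, after 4 h with 0.2 mg/mL MTT. Before that, HCT-116 cells had been exposed 3–5 days at 37 °C to compounds in 0.5% (v/v) DMSO, added 4 h after plating. 50% and 90% inhibitory concentrations were taken from semi-log concentration–inhibition plots versus vehicle controls.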

human CDK4/cyclin D3 = target: T2, human CDK4/cyclin D3 (Homo sapiens, UniProt P11802); assay: Inhibition of CDK4/cyclin D retinoblastoma kinase activity (Ki; % inhibition); assay type: biochemical; conditions: for Ki: apparent Ki, CDK4/cyclin D3, Rb substrate
T2 construct: made in house; host or cells: insect cells co-infected with baculovirus vectors
Procedure, shortened: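 Insect-cell-expressed CDK4 with truncated cyclin D3 (1-264), 5 nM, phosphorylating His-tagged Rb fragment (386-928) with 25 μM [32/33P]ATP at pH 7.4, 30 °C, 20 min (60 min for tight binders). Filter capture, phosphorimager read; % inhibition at 30 nM compound, Ki from competitive or tight-binding fits.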

[1] = HCT-116 cells, 0.25 μM compound

T2 sequence (P11802 whole entry): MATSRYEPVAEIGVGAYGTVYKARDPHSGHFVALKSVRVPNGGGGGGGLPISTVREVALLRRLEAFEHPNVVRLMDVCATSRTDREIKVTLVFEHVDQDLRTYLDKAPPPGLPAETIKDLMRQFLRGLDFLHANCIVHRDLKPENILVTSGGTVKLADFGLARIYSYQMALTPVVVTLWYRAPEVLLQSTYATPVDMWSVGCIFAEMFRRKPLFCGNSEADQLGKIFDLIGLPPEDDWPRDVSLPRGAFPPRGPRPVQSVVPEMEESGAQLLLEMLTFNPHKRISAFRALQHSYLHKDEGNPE
T2 sequence (P30281 1-264 partner limits assumed): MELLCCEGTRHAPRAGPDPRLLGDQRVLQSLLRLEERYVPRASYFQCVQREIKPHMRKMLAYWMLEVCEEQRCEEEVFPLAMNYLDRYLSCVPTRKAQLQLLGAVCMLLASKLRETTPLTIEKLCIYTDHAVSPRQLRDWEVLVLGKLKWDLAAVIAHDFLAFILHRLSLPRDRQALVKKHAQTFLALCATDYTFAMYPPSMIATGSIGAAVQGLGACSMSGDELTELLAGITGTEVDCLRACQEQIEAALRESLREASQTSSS

Row | Structure (SMILES) | CDK2 % Inhibition at 0.03 μM (CDK2/cyclin A; at 0.03 μM) | HCT-116 % Inhibition at 0.1 μM (HCT-116 cell line; HCT-116, at 0.1 μM) | CDK4 % Inhibition at 0.03 μM (human CDK4/cyclin D3; at 0.03 μM) | CDK2 % Inhibition at 0.03 μM (CDK2/cyclin A; 0.03 μM compound) | HCT-116 % Inhibition at 0.1 μM (HCT-116 cell line; HCT-116 cells, 0.1 μM compound) | HCT-116 % Inhibition at 0.25 μM (HCT-116 cell line; [1]) | CDK4 % Inhibition at 0.03 μM (human CDK4/cyclin D3; 0.03 μM compound) | HCT-116 % Inhibition at 0.25 μM (HCT-116 cell line; HCT-116, at 0.25 μM) | other results
1 | Nc1nc(Nc2ccc(C(=O)NC(CO)c3ccccc3)cc2)sc1C(=O)c1c(F)cccc1F (centres unmarked) [Example G160] | 24% | 0% | 6% |  |  |  |  |  | HCT-116 % Inhibition at 0.25 μM (HCT-116 cell line; HCT-116, at 0.25 μM, 0.25 µM): 87%
2 | COc1ccc(CNC(=O)c2ccc(Nc3nc(N)c(C(=O)c4c(F)cccc4F)s3)cc2)cc1OC [Example G345] |  |  |  | −2% | 22% | 36% | 6% |  | 
3 | N#CCc1ccc(NC(=O)c2ccc(Nc3nc(N)c(C(=O)c4c(F)cccc4F)s3)cc2)cc1 [Example G321] |  |  |  | 1% | 11% | 51% | 19% |  | 
4 | Nc1nc(Nc2ccc(C(=O)NCCNc3ccccc3)cc2)sc1C(=O)c1c(F)cccc1F [Example G134] | 60% | 1% | 38% |  |  |  |  | 89% | 
5 | CC(CNC(=O)c1ccc(Nc2nc(N)c(C(=O)c3c(F)cccc3F)s2)cc1)N(C)C (centres unmarked) [Example G92] | −7% | 85% | 10% |  |  |  |  | 98% | 
6 | Nc1nc(Nc2ccc(C(=O)Nc3cccc(SC(F)(F)F)c3)cc2)sc1C(=O)c1c(F)cccc1F [Example G377] |  |  |  | 10% | 25% | 55% | −1% |  | 
7 | Nc1nc(Nc2ccc(C(=O)NC3CCOC3=O)cc2)sc1C(=O)c1c(F)cccc1F (centres unmarked) [Example G129] | 11% | 0% | 19% |  |  |  |  | 51% | 
8 | COCCN1CCN(C(=O)c2ccc(Nc3nc(N)c(C(=O)c4c(F)cccc4F)s3)cc2)CC1 [Example G362] |  |  |  | 12% | 9% | 57% | 6% |  | 
9 | Nc1nc(Nc2ccc(C(=O)Nc3cccc(-c4nnco4)c3)cc2)sc1C(=O)c1c(F)cccc1F [Example G369] |  |  |  | 26% | 21% | 36% | 8% |  | 
10 | COc1ccc(NC(=O)c2ccc(Nc3nc(N)c(C(=O)c4c(F)cccc4F)s3)cc2)cc1O [Example G14] | 9% |  | 26% |  |  |  |  | 50% | 
11 | CN(C)C(=O)CN(C)C(=O)c1ccc(Nc2nc(N)c(C(=O)c3c(F)cccc3F)s2)cc1 [Example G5] | −23% |  | −3% |  |  |  |  | 47% | 
12 | Cc1cccc(CN(C)C(=O)c2ccc(Nc3nc(N)c(C(=O)c4c(F)cccc4F)s3)cc2)n1 [Example G315] |  |  |  | −1% | 7% | 50% | 11% |  | 
13 | Nc1nc(Nc2ccc(C(=O)NCCCN3CCCC3=O)cc2)sc1C(=O)c1c(F)cccc1F [Example G88] | −23% | 24% | 6% |  |  |  |  | 49% | 
14 | COc1ccc(NC(=O)c2ccc(Nc3nc(N)c(C(=O)c4c(F)cccc4F)s3)cc2)cc1F [Example G347] |  |  |  | 13% | 21% | 53% | 15% |  | 
15 | C[C@@H](NC(=O)c1ccc(Nc2nc(N)c(C(=O)c3c(F)cccc3F)s2)cc1)c1ccccc1 [Example G166] | 22% | 8% | 4% |  |  |  |  | 90% | 
16 | Nc1nc(Nc2ccc(C(=O)N3CC=CC3)cc2)sc1C(=O)c1c(F)cccc1F [Example G40] | 4% |  | 18% |  |  |  |  | 61% | 
17 | COc1ccc(CNC(=O)c2ccc(Nc3nc(N)c(C(=O)c4c(F)cccc4F)s3)cc2)c(OC)c1 [Example G254] |  |  |  | 28% | 35% | 75% | 20% |  | 
18 | CN1CCCC[C@H]1CNC(=O)c1ccc(Nc2nc(N)c(C(=O)c3c(F)cccc3F)s2)cc1 [Example A43, 4-[4-Amino-5-(2,6-difluoro-benzoyl)-thiazol-2-ylamino]-N-(1-methyl-piperidin-2S-yl-methyl)-benzamide] |  |  |  |  |  |  |  |  | Ki (CDK2/cyclin A): 109 nM; IC50 (HCT-116 cell line): 580 nM; Ki (human CDK4/cyclin D3): 13 nM
19 | CC(C)OCCCNC(=O)c1ccc(Nc2nc(N)c(C(=O)c3c(F)cccc3F)s2)cc1 [Example G135] | 2% | 0% | 25% |  |  |  |  | 56% | 
20 | Nc1nc(Nc2ccc(C(=O)N3CCN(Cc4ccccc4)CC3)cc2)sc1C(=O)c1c(F)cccc1F [Example G217] |  |  |  | 17% | 8% | 51% | 34% |  | 
21 | Nc1nc(Nc2ccc(C(=O)N3CCN(c4ccccn4)CC3)cc2)sc1C(=O)c1c(F)cccc1F [Example C201] |  |  |  | 6% | 17% | 43% | 26% |  | 
22 | N#CCCN(CC1CCCO1)C(=O)c1ccc(Nc2nc(N)c(C(=O)c3c(F)cccc3F)s2)cc1 (centres unmarked) [Example G179] | −5% | 21% | 10% |  |  |  |  | 42% | 
23 | Nc1nc(Nc2ccc(C(=O)NCc3ccc(F)cc3F)cc2)sc1C(=O)c1c(F)cccc1F [Example G301] |  |  |  | 13% | 18% | 79% | 25% |  | 
24 | Nc1nc(Nc2ccc(C(=O)NCCCn3ccnc3)cc2)sc1C(=O)c1c(F)cccc1F [Example G143] | 2% | 0% | 27% |  |  |  |  | 65% | 
25 | CN1CCC[C@H]1CNC(=O)c1ccc(Nc2nc(N)c(C(=O)c3c(F)cccc3Cl)s2)cc1 [Example A71, 4-[4-Amino-5-(2-chloro-6-fluoro-benzoyl)-thiazol-2-ylamino]-N-(1-methyl-pyrrolidin-2S-ylmethyl)-benzamide] |  |  |  |  |  |  |  |  | Ki (CDK2/cyclin A): 5.6 nM; IC50 (HCT-116 cell line): 34 nM; Ki (human CDK4/cyclin D3): 82 nM
26 | Nc1nc(Nc2ccc(C(=O)Nc3ccc4[nH]ccc4c3)cc2)sc1C(=O)c1c(F)cccc1F [Example G227] |  |  |  | 28% | 17% | 84% | 17% |  | 
27 | NC(=O)C(CO)NC(=O)c1ccc(Nc2nc(N)c(C(=O)c3c(F)cccc3F)s2)cc1 (centres unmarked) [Example G198] |  |  |  | 19% | 9% | 44% | 42% |  | 
28 | Nc1nc(Nc2ccc(C(=O)NCCc3ccncc3)cc2)sc1C(=O)c1c(F)cccc1F [Example G268] |  |  |  | −11% | 26% | 63% | 2% |  | 
